Results from paper PMC4769084, “Aminoglycoside binding and catalysis specificity of aminoglycoside 2″-phosphotransferase IVa: A thermodynamic, structural and kinetic study” (Biochimica et Biophysica Acta, 2016).
Like-named read-outs stand apart in the source and are kept apart here.

Experiments:
[1] = target: T1, APH(2″)-IVa (Enterococcus casseliflavus, UniProt O68183); assay: Isothermal titration calorimetry of aminoglycoside binding
Experimental: The enzyme was extensively dialyzed against buffer containing 50 mM Tris–HCl at pH 7.5, 40 mM KCl, 1 mM MgCl2 and ligand solutions were prepared at 5 mM in the final dialysate with readjusting pH to 7.5. The enzyme was used at a final concentration of 150 μM. ITC experiments were carried out at 25 °C in a VP-ITC calorimeter (MicroCal, GE Healthcare). Titrations consisted of 40 injections of 5 μL of ligand every 300 s. The cell stirring speed was 300 rpm. To obtain reliable dissociation constants, the c-value, a unitless parameter obtained by the multiplication of the association constant and the total concentration of ligand binding sites, was kept between 1.8 and 100 for all titrations. Control runs were performed by titrating ligands to buffer, and the resulting background signal was subtracted from the corresponding experimental data. Experiments were carried out at 1 mM free Mg^2 +.
Binding and thermodynamic parameters Ka (association constant), ΔH (enthalpy change) and stoichiometry were obtained by nonlinear least-squares fitting of experimental data using a single-site binding model of the Origin software package (version 5.0) provided with the instrument. The free energy of binding (ΔG) and entropy change at 25 °C (ΔS) were obtained using the following equations:(1) ΔG=–RTlnKa (2) ΔG=ΔH–TΔS
The experiments were performed in triplicate (except with G418 and kanamycin B, in duplicate) and the error values given in the tables are standard deviations.

[2] = target: T1, APH(2″)-IVa; conditions: for phosphotransferase activity: confirmed at 5 μM APH(2″)-IVa, 2.5 mM ATP; for Kd/Km: ratio of ITC Kd to steady state Km; for Km / kcat: saturating MgATP (2.5 mM), aminoglycoside 0 to 100 μM, 25 °C, pH 7.5; for Km: na = no detectable activity; for kcat: na = no detectable activity (< 0.001 s^− 1), enzyme up to 5 μM
Experimental: (§1) Unless otherwise stated, kinetic experiments were carried out in a buffer that contained 50 mM Tris, 40 mM KCl, 1 mM free MgCl2 adjusted to pH 7.5 with HCl at 25 °C. In the case of experiments with CaATP, the buffer was MgCl2-free.
Steady state kinetics were carried out in thermostatically controlled beakers as already described. Unless otherwise stated, the enzyme concentration was 0.5 μM in the presence of various concentrations of aminoglycoside (5 to 100 μM). […] At regular intervals, a volume of 80 μL of the reaction mixture was sampled from the beaker and mixed in a tube containing 40 μL of perchloric acid at 10%. The precipitated protein was then removed by centrifugation at 4 °C, 20 min at 19,000 g. ADP and ATP were separated by HPLC (Waters) on an anion-exchange column (SAX-Partisphere, AIT France). The mobile phase was 200 mM ammonium phosphate–HCl buffer at pH 5.5 and 10% acetonitrile. A 100 μL volume of the quenched reaction mixture was diluted in 900 μL of buffer containing the mobile phase supplemented with 5 N KOH to readjust the pH to 5.5. Quantification of ADP and ATP was obtained by integrating HPLC peaks at 259 nm and their concentrations were reported relative to the enzyme concentration. […] For each injected sample, the concentration of ADP was calculated using the following equation, where [ATP]i is the initial ATP concentration used in the experiment:(3) ADP=ADPpeakarea×ATPi/ADPpeakarea+ATPpeakarea

[3] = system: APH(2″)-IVa; parameters: method as in Toth et al. [5]; conditions: values in brackets, coupled enzyme system; ref Toth et al. [5]; cited from earlier work
[4] = target: T1, APH(2″)-IVa; assay: Transient kinetics, stopped–flow with MDCC-ParM ADP biosensor (free ADP); format: biochemical; conditions: 5 μM APH(2″)-IVa, 500 μM ATP, 100 μM aminoglycoside, 50 μM MDCC-ParM
Experimental: as §1
(§2) Transient kinetic experiments were carried out at 25 °C in a QFM-400 quench–flow (Bio-Logic, France) or in a SF-61 DX2 stopped–flow (TgK Scientific, UK). In the quench–flow method, APH(2″)-IVa, pre-incubated with the aminoglycoside, was mixed with ATP in the apparatus. The mixtures were aged for specific times (from 8 ms to several seconds), quenched in 10% perchloric acid and the ADP and ATP measured by HPLC, as described above. Because perchloric acid dissociates all non-covalent complexes, by this method, concentrations in the reaction mixtures of total ADP, that is to say enzyme-bound ADP plus free ADP, are obtained. In the stopped–flow experiments, a free ADP fluorescent biosensor, MDCC-ParM [28], was included in the ATP solution. By this method, concentrations in the reaction mixtures of free ADP only are obtained. Experiments were carried out as previously described for APH(3′)-IIIa.

[5] = target: T1, APH(2″)-IVa; assay: Transient kinetics, rapid quench–flow (total ADP); format: biochemical; conditions: 5 μM APH(2″)-IVa, 500 μM ATP, 100 μM aminoglycoside; for Aburst: ± standard error of fit
Experimental: as §1, §2

[6] = system: CN[C@@H]1[C@@H](O)[C@@H](O[C@@H]2[C@@H](O)[C@H](O[C@H]3OC(CN)=CC[C@H]3N)[C@@H](N)C[C@H]2N)OC[C@]1(C)O; assay: purified protein, by the assay type; conditions: other: saturating MgATP (2.5 mM), aminoglycoside 0 to 100 μM, 25 °C, pH 7.5, na = no detectable activity
Experimental: (§3) Steady state kinetics were carried out in thermostatically controlled beakers as already described [27]. Unless otherwise stated, the enzyme concentration was 0.5 μM in the presence of various concentrations of aminoglycoside (5 to 100 μM). […] Reactions were initiated by adding a saturating concentration of ATP (2.5 mM) in a thermostatically controlled beaker containing APH(2″)-IVa and aminoglycoside. At regular intervals, a volume of 80 μL of the reaction mixture was sampled from the beaker and mixed in a tube containing 40 μL of perchloric acid at 10%. The precipitated protein was then removed by centrifugation at 4 °C, 20 min at 19,000 g. ADP and ATP were separated by HPLC (Waters) on an anion-exchange column (SAX-Partisphere, AIT France). The mobile phase was 200 mM ammonium phosphate–HCl buffer at pH 5.5 and 10% acetonitrile. A 100 μL volume of the quenched reaction mixture was diluted in 900 μL of buffer containing the mobile phase supplemented with 5 N KOH to readjust the pH to 5.5. Quantification of ADP and ATP was obtained by integrating HPLC peaks at 259 nm and their concentrations were reported relative to the enzyme concentration. Concentrations (in the quenched reaction mixtures) between 0.5 and 500 μM of ADP or ATP gave a linear and equivalent OD259 response. For each injected sample, the concentration of ADP was calculated using the following equation, where [ATP]i is the initial ATP concentration used in the experiment:(3) ADP=ADPpeakarea×ATPi/ADPpeakarea+ATPpeakarea

[7] = system: NC[C@H]1O[C@H](O[C@H]2[C@H](O)[C@@H](O[C@H]3O[C@H](CO)[C@@H](O)[C@H](N)[C@H]3O)[C@H](N)C[C@@H]2N)[C@H](N)[C@@H](O)[C@@H]1O; assay: purified protein, by the assay type; conditions: other: saturating MgATP (2.5 mM), aminoglycoside 0 to 100 μM, 25 °C, pH 7.5, na = no detectable activity
Experimental: as §3

[8] = system: NC[C@H]1O[C@H](O[C@H]2[C@H](O)[C@@H](O[C@H]3O[C@H](CO)[C@@H](O)[C@H](N)[C@H]3O)[C@H](N)C[C@@H]2N)[C@H](N)C[C@@H]1O; assay: purified protein, by the assay type; conditions: other: saturating MgATP (2.5 mM), aminoglycoside 0 to 100 μM, 25 °C, pH 7.5, na = no detectable activity
Experimental: as §3

T1 sequence (O68183 entry or part of it): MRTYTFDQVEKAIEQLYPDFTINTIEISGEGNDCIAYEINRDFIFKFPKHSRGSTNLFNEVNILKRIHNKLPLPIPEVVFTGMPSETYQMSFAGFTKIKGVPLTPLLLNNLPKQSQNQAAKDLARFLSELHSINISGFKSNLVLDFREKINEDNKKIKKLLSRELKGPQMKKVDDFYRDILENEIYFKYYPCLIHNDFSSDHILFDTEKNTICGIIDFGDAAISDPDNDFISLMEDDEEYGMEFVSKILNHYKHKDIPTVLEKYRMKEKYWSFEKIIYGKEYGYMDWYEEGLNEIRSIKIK

In the case of `NCC[C@H](O)C(=O)N[C@@H]1C[C@H](N)[C@@H](O[C@H]2O[C@H](CN)[C@@H](O)[C@H](O)[C@H]2O)[C@H](O)[C@H]1O[C@H]1O[C@H](CO)[C@@H](O)[C@H](N)[C@H]1O` [Amikacin], the Kd [1] is given as 82.2 ± 8.9 µM, the phosphotransferase activity [2] is given as “absence of activity” and the Km [3] is given as 98 µM. The kcat [3] was “(0.15 ± 0.01) s^− 1”.

In the case of `CN[C@@H]1[C@@H](O)[C@@H](O[C@@H]2[C@@H](O)[C@H](O[C@H]3O[C@H]([C@@H](C)O)[C@@H](O)[C@H](O)[C@H]3N)[C@@H](N)C[C@H]2N)OC[C@]1(C)O` [G418], the klag [4] is reported as 1.6 ± 0.1 s^− 1, the kss [4] is reported as 0.33 ± 0.01 s^− 1 and the Kd ([1]; read-out: Kd) is reported as 27.5 ± 3.3 µM. It also gave a Kd/Km [2] of 12.5, a Km [2] of 2.2 ± 0.4 µM and a kcat [2] of 0.49 ± 0.01 s^− 1. It also gave a kburst [5] of 2.0 ± 1.1 s^− 1, a kss [5] of 0.35 ± 0.04 s^− 1 and an Aburst [5] of 0.34 ± 0.11 mol/mol.

With `CNC(C)C1CCC(N)C(OC2C(N)CC(N)C(OC3OCC(C)(O)C(NC)C3O)C2O)O1` (centres unmarked) [Gentamicin] the Kd [1] was 9.7 ± 5 µM, the Kd/Km [2] was 2.9 and the Km [2] was 3.3 ± 0.6 µM. The kcat [2] was 0.47 ± 0.01 s^− 1.

In the case of `NC[C@H]1O[C@H](O[C@H]2[C@H](O)[C@@H](O[C@H]3O[C@H](CO)[C@@H](O)[C@H](N)[C@H]3O)[C@H](N)C[C@@H]2N)[C@H](N)[C@@H](O)[C@@H]1O` [Kanamycin B], the Kd [1] is reported as 5.7 ± 1.1 µM and the Kd/Km [2] is reported as 0.5.

For `NC[C@@H]1O[C@H](O[C@H]2[C@@H](O)[C@H](O[C@@H]3[C@@H](O)[C@H](N)C[C@H](N)[C@H]3O[C@H]3O[C@H](CO)[C@@H](O)[C@H](O)[C@H]3N)O[C@@H]2CO)[C@H](N)[C@@H](O)[C@@H]1O` [Paromomycin], the Kd [1] was 63.6 ± 29 µM and the phosphotransferase activity [2] was “absence of activity”.

`CN[C@@H]1[C@@H](O)[C@@H](O[C@@H]2[C@@H](O)[C@H](O[C@H]3OC(CN)=CC[C@H]3N)[C@@H](N)C[C@H]2N)OC[C@]1(C)O` [Sisomicin] showed a klag [4] of 1.6 ± 0.1 s^− 1, a kss [4] of 0.48 ± 0.01 s^− 1 and a Kd [1] of 2.3 ± 1.6 µM. It also gave a Kd/Km [2] of 0.7, a kburst [5] of 2.0 ± 0.4 s^− 1 and a kss [5] of 0.50 ± 0.02 s^− 1. For the same compound, the Aburst [5] was 0.48 ± 0.07 mol/mol.

`NC[C@H]1O[C@H](O[C@H]2[C@H](O)[C@@H](O[C@H]3O[C@H](CO)[C@@H](O)[C@H](N)[C@H]3O)[C@H](N)C[C@@H]2N)[C@H](N)C[C@@H]1O` [Tobramycin] showed a klag [4] of 3.3 ± 0.1 s^− 1, a kss [4] of 1.05 ± 0.01 s^− 1 and a Kd [1] of 3.9 ± 0.6 µM. For the same compound, the “affinity of the apoprotein, times greater than for kanamycin A and for amikacin” value ([1]; ITC Kd comparison) was 20 times, the Kd/Km [2] was 0.3 and the kburst [5] was 2.1 ± 0.4 s^− 1. For the same compound, the kss [5] was 1.08 ± 0.02 s^− 1, the Aburst [5] was 0.44 ± 0.05 mol/mol and the Km [3] was 1.5 µM. The kcat [3] was “(1.80 ± 0.03) s^− 1”.

For “APH(2″)-IVa (Enterococcus casseliflavus)”, the Km [6] was 3.5 ± 0.6 µM, the kcat [6] was 0.73 ± 0.02 s^− 1 and the kcat/Km [6] was 0.209 μM^− 1 s^− 1. It also gave a Km [7] of 12.5 ± 2.9 µM, a kcat [7] of 1.69 ± 0.11 s^− 1 and a kcat/Km [7] of 0.135 μM^− 1 s^− 1. It also gave a Km [8] of 13.2 ± 2.2 µM, a kcat [8] of 1.64 ± 0.08 s^− 1 and a kcat/Km [8] of 0.124 μM^− 1 s^− 1.

In the case of Kanamycin A, the klag [4] is reported as 3.4 ± 0.1 s^− 1, the kss [4] is reported as 0.70 ± 0.01 s^− 1 and the “Kd, fold larger compared to tobramycin” value ([1]; ITC Kd comparison) is reported as 20 fold. The “steady state rate constant” value ([2]; 0.5 μM APH(2″)-IVa, 100 μM kanamycin A, 100 μM MgATP) was 0.23 s^− 1, the “steady state rate constant” value ([2]; 0.5 μM APH(2″)-IVa, 100 μM kanamycin A, 200 μM MgATP) was 0.37 s^− 1 and the “kss, CaATP phosphotransferase activity” value ([2]; 0.5 μM APH(2″)-IVa, 100 μM kanamycin A, 2 mM CaATP) was 0.092 s^− 1. The “kss, MgATP phosphotransferase activity” value ([2]; 0.5 μM APH(2″)-IVa, 100 μM kanamycin A, 2 mM MgATP) was 0.84 s^− 1, the “Km, fold lower compared with tobramycin” value ([2]; in the presence of ATP) was 3.3 fold and the Kd/Km [2] was 20.0. For the same compound, the Kd/Km ([2]; listed as kanamycin A) was 20, the kburst [5] was 3.4 ± 0.7 s^− 1 and the kss [5] was 0.77 ± 0.02 s^− 1. For the same compound, the Aburst [5] was 0.38 ± 0.04 mol/mol, the Km [3] was 3.3 µM and the kcat [3] was “(0.92 ± 0.01) s^− 1”.
